Experimental findings from patent US20160045459A1, “Pharmaceutical Combination” (Gruenenthal GmbH, priority 2006, published 2016) are described below.

The experiment concerns rat. The experiment is described as follows: Randall-Selitto test in rats (Carrageenin-induced oedema, model for inflammatory pain), with isobolographic analysis of fixed ratio combinations. Format: in vivo. The settings on record: for ED50: Rattus norvegicus, confidence interval in brackets; for timepoint of peak effect: substance applied alone, A i.v., NSAIDs i.p. The procedure:
The weight ratios of the components (a) and (b) that will lead to a supra-additive effect (synergistic effect) of the inventive pharmaceutical composition may be determined via the test of Randall and Selitto as described in Arch. Int. Pharmacodyn., 1957, 111: 409 to 419, which is a model for inflammatory pain. The respective part of the literature is hereby incorporated by reference and forms part of the present disclosure.
By means of injection of 0.1 ml of Carrageenin-suspension ventrally into a hind paw of a rat an oedema is induced, on which pain is generated 4 hours later by continuously increasing pressure with a stamp (2 mm tip diameter). The antinociceptive and antihyperalgesic activity of the tested substance is determined at different points in time after administration of the substance. The measured value to be determined and at the same time also the end point of the pain test is the pressure at which the vocalisation reaction of the rat occurs. The percentage maximum possible effect (% MPE) is calculated. The maximum pressure of the stamp is 250 g. The group size is n=10.
The interactions studies presented herein were performed using equieffective doses of the two components, calculated from the ratio of the respective ED50 values of the components if administered alone.
The application route was intravenous (i.v.) for (1R,2R)-3-(3-Dimethylamino-1-ethyl-2-methyl-propyl)-phenol (A) and intraperitoneal (i.p.) for the NSAIDs Diclofenac-sodium and Ibuprofen. […] According to their respective timepoint of peak effect, (1R,2R)-3-(3-Dimethylamino-1-ethyl-2-methyl-propyl)-phenol was applied 15 min and Diclofenac-Sodium and Ibuprofen 30 min before timepoint of measurement of the interaction-experiments (i. e. Diclofenac-Sodium or Ibuprofen were applied 15 min before (1R,2R)-3-(3-Dimethylamino-1-ethyl-2-methyl-propyl)-phenol, respectively). Thus, the time point of ED50 calculation of the combination corresponds to the timepoint of the peak effect of the respective compound.
The application route was intravenous (i.v.) for (1R,2R)-3-(3-Dimethylamino-1-ethyl-2-methyl-propyl)-phenol (A) and intraperitoneal (i.p.) for the NSAIDs (+)-Naproxen, Ketoprofen and Metamizol-Sodium. […] According to their respective timepoint of peak effect, (1R,2R)-3-(3-Dimethylamino-1-ethyl-2-methyl-propyl)-phenol was applied 15 min and (+)-Naproxen, Ketoprofen and Metamizol-Sodium 45 min before timepoint of measurement of the interaction-experiments (i. e. (+)-Naproxen, Ketoprofen and Metamizol-Sodium were applied 30 min before (1R,2R)-3-(3-Dimethylamino-1-ethyl-2-methyl-propyl)-phenol, respectively). Thus, the time point of ED50 calculation of the combination corresponds to the timepoint of the peak effect of the respective compound.
(In general: Carrageenan injected into the paw causes an acute inflammation.)

Setting [1] is: ip, 0.5 h, study A, i.p., 30 min p. appl. (peak effect), read-out: ED50 of the NSAID applied alone.
[2] abbreviates: ip, 0.75 h, study B, i.p., 45 min p. appl. (peak effect), read-out: ED50 of the NSAID applied alone.

Where two headings read alike, the source gives them in different places.

Broadly, the ED50 is the dose at which the effect has come halfway, by size or by number of responders. For `CC(C)Cc1ccc(C(C)C(=O)O)cc1` (centres unmarked) [Ibuprofen, 2-(4-Isobutylphenyl)propanoic acid], the “timepoint of peak effect” value is 30 min p. appl. For the same molecule, the median effective dose (ED50) under setting [1] was found to be 139 mg/kg. Moreover, the “analgesic effect of the NSAID applied alone” value (shortened to “analgesic effect”) (i.p.) is “dose-dependent analgesic effects”.
For `CC1C(N(C)CS(=O)(=O)[O-])C(=O)N(c2ccccc2)N1C.[Na+]` (centres unmarked) [Metamizol-Sodium, Sodium ((1,5-dimethyl-3-oxo-2-phenylpyrazolidin-4-yl)(methyl)amino)methanesulfonate], the “timepoint of peak effect” value was 45 min p. appl. Under setting [2], the ED50 came out at 88.1 mg/kg. The “analgesic effect” value (i.p.) is recorded as “dose-dependent analgesic effects”.
Turning to `O=C(O)Cc1ccccc1Nc1c(Cl)cccc1Cl` [Diclofenac-Sodium], the “timepoint of peak effect” value was 30 min p. appl. In addition, under setting [1], the ED50 was determined as 145 mg/kg. Moreover, under “i.p.”, the “analgesic effect” value is given as “dose-dependent analgesic effects”.
With `CC[C@@H](c1cccc(O)c1)[C@@H](C)CN(C)C` [A, (1R,2R)-3-(3-Dimethylamino-1-ethyl-2-methyl-propyl)-phenol], the median effective dose (ED50) is, setting by setting: (iv, 0.25 h, read-out: ED50 of A applied alone, study A, i.v., 15 min p. appl. (peak effect)) 1.88 mg/kg; (iv, 0.25 h, read-out: ED50 of A applied alone, study B, i.v., 15 min p. appl. (peak effect)) 1.88 mg/kg.
For the molecule `CC(C(=O)O)c1cccc(C(=O)c2ccccc2)c1` (centres unmarked) [Ketoprofen, 2-(3-Benzoylphenyl)propanoic acid], the “timepoint of peak effect” value amounted to 45 min p. appl. In addition, the median effective dose (ED50) under setting [2] was found to be 224 mg/kg. For the same molecule, the “analgesic effect” value (i.p.) is on record as “dose-dependent analgesic effects”.
